Assay [1] addresses CtermHisTag-mEGFR Triple Mutant - C797S, L858R, T790M (Homo sapiens, UniProt P00533, C797S/L858R/T790M). Put plainly: TR-FRET probe displacement assay, EGFR triple mutant. Type of assay: binding. The conditions noted are these: T790M 1.25 nM, probe 100 nM, 30 mins room temperature. Summed up: (§1)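 Ten-point compound series, 100000 to 3 nM final, tested against His-tagged EGFR (wild type or C797S/L858R/T790M) for probe displacement. TR-FRET read at Ex337 nm, Em490/520 nm; run in technical replicate, biological duplicate.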
On the technique in general: TR-FRET usually uses a lanthanide donor and a delayed reading to cut background.

The target in assay [2] is CtermHisTag-mEGFR Wild type (Homo sapiens, UniProt P00533). As to the kind of experiment: TR-FRET probe displacement assay, EGFR wild type. The conditions noted are these: EGFR wild type 1.25 nM, probe 100 nM, 30 mins room temperature. Type of assay: binding. Summed up: as §1
In assay [3] the target is T1, Phospho-EGFR (Tyr1068) in H1975 cells (Homo sapiens, UniProt P00533, L858R/T790M).
T1 construct: host or cells: H1975
Put plainly: HTRF pEGFR/total EGFR assay in H1975 cells. Particulars: compound 3 hours, ratio pEGFR/total EGFR. Type of assay: cell-based. Summed up: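 H1975 cells (EGFR L858R/T790M) adhered 24 h, then compound-treated for 3 h in duplicate, 0.1% DMSO final. Lysates read by HTRF at 665/620 nm for phospho-Tyr1068 and total EGFR. Value is pEGFR/total EGFR ratio as % of 0 uM control.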

The target of assay [4] is T2, Phospho-EGFR (Tyr1068) in H1975 C797S cells (Homo sapiens, UniProt P00533, C797S/L858R/T790M).
T2 construct: endogenous in cells; host or cells: H1975 C797S (CRISPR-edited in house from ATCC CRL-5908)
Put plainly: HTRF pEGFR/total EGFR assay in H1975 C797S cells. Type of assay: cell-based. The conditions noted are these: H1975 C797S cells (CRISPR), compound 3 hours, ratio pEGFR/total EGFR. The essentials: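 H1975 cells carrying CRISPR-engineered EGFR C797S (with L858R/T790M) were exposed to compounds for 3 h at 0.1% DMSO, in duplicate. Lysates were read with HTRF kits for pEGFR Tyr1068 and total EGFR at 665/620 nm. Values are the pEGFR/total EGFR ratio as percent of the 0 uM control.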

The target in assay [5] is T3, Phospho-EGFR (Tyr1068) in A431 cells (Homo sapiens, UniProt P00533).
T3 construct: endogenous in cells; host or cells: A431
As to the kind of experiment: HTRF pEGFR/total EGFR assay in A431 cells (EGF stimulated). It counts as cell-based. Particulars: compound 2.5 hours then 100 ng/ml EGF 30 mins, ratio pEGFR/total EGFR. The essentials:
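A431 cells pretreated with compounds 2.5 h (0.1% DMSO), then stimulated with 100 ng/ml EGF for 30 min. Lysates assayed by HTRF for phospho-EGFR (Tyr1068) and total EGFR, read at 665/620 nm. Values are pEGFR/total EGFR ratio as percentage of 0uM control.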

The record followed here is patent US20260176265A1 (Cancer Research Technology Limited, priority 2022, published 2026).

Usually IC50 stands for the midpoint of a concentration-inhibition curve.

Structures are written as SMILES. Some results are limits rather than exact numbers.

T1 sequence (P00533 25-1210 T790M/L858R): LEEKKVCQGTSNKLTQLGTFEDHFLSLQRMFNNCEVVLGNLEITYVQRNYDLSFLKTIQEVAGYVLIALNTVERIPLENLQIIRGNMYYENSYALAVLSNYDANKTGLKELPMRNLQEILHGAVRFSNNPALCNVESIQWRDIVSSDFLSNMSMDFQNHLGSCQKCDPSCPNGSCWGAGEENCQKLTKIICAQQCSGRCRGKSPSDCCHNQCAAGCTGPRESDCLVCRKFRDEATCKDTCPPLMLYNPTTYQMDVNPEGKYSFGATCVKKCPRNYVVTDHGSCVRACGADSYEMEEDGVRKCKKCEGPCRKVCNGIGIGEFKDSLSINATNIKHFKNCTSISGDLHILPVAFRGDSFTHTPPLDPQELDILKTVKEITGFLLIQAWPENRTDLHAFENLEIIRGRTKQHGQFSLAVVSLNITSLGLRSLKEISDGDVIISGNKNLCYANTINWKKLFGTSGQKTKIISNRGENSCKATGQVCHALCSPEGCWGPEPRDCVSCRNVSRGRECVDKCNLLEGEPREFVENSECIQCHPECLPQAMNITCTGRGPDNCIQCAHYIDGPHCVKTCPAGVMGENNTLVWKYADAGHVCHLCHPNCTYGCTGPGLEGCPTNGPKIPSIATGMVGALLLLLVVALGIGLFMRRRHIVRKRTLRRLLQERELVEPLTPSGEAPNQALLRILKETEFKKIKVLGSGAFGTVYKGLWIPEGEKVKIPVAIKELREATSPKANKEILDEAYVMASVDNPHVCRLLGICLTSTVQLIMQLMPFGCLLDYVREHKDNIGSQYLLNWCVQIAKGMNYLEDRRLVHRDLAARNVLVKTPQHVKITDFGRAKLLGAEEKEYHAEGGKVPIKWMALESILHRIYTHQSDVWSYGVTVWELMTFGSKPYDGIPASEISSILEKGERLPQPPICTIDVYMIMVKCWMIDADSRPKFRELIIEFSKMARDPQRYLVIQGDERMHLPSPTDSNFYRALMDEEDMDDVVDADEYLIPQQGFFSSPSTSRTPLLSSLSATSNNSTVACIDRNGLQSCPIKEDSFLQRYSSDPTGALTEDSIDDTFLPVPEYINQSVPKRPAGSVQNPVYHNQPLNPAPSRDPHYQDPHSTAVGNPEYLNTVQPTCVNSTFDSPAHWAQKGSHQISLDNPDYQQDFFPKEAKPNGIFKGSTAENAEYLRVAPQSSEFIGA
T2 sequence (P00533 25-1210 T790M/C797S/L858R): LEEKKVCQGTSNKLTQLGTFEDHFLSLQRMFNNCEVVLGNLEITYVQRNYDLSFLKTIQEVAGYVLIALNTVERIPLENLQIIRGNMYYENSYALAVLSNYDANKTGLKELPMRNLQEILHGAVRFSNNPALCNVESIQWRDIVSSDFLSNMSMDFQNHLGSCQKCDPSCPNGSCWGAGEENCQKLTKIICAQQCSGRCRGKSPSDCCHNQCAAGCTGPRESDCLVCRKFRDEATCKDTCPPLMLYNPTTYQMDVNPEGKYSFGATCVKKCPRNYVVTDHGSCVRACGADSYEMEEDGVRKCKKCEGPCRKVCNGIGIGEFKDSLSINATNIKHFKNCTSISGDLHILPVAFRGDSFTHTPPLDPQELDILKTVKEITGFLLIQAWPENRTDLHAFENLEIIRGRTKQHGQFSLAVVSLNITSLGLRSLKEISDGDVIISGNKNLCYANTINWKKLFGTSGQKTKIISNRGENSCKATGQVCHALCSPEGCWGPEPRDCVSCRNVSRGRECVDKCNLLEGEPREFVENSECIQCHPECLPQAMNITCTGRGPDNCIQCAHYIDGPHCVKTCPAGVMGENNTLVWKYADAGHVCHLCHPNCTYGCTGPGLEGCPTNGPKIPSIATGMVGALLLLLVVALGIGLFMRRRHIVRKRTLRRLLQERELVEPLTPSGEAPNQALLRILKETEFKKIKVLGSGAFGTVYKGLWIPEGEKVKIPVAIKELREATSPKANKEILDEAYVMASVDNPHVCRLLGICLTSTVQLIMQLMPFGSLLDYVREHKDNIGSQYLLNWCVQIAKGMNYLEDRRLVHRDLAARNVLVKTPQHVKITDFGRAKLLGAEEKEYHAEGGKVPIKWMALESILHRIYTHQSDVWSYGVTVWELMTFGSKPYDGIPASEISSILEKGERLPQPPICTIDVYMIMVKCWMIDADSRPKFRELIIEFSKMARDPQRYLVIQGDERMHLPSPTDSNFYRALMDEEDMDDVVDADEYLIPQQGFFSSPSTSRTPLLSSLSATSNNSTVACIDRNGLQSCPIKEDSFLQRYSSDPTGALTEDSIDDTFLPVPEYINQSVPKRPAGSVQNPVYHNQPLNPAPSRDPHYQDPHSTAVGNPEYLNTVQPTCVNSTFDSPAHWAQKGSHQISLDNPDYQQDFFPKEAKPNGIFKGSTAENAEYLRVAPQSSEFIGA
Chain of CtermHisTag-mEGFR Triple Mutant - C797S, L858R, T790M (P00533 25-1210 T790M/C797S/L858R): as above
Chain of CtermHisTag-mEGFR Wild type (P00533 25-1210): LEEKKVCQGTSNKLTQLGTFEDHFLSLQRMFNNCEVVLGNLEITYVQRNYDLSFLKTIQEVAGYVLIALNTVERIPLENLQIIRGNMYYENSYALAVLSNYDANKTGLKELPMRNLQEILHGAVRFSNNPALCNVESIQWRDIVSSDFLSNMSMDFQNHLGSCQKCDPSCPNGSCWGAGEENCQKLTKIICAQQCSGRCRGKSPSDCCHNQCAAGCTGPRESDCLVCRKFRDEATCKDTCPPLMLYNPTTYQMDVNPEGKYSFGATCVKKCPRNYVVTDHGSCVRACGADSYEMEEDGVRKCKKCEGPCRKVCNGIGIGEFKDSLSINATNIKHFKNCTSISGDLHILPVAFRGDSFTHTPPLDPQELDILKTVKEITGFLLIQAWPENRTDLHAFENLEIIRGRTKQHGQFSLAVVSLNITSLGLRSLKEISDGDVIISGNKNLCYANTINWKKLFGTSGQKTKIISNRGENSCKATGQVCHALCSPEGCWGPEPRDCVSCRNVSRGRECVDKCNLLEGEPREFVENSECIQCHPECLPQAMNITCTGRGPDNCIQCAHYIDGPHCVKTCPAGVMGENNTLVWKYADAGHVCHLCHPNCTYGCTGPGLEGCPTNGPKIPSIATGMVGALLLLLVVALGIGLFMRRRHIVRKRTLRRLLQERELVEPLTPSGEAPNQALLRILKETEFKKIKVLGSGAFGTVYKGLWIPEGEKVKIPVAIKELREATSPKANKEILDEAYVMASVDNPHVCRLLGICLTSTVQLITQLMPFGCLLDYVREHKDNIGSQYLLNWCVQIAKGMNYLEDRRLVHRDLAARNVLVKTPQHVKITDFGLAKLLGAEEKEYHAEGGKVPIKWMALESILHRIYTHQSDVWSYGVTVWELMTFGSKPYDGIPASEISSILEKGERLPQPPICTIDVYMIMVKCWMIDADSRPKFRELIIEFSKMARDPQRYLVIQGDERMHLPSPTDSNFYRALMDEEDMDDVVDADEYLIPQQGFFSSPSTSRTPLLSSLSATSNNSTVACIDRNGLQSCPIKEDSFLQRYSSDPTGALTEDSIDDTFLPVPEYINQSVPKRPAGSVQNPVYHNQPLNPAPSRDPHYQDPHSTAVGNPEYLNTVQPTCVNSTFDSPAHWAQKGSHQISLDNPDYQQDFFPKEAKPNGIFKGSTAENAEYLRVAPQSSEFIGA

Take `C#Cc1cc(NC(=O)OCc2ccccc2)nc2nc(Nc3ccc(N4CCN(C)CC4)cc3)ncc12` [Example 67, benzyl (5-ethynyl-2-((4-(4-methylpiperazin-1-yl)phenyl)amino)pyrido[2,3-d]pyrimidin-7-yl)carbamate]: the IC50 in assay [1] was 1000 to 50000 nM; in assay [2], > 10000 nM; in assay [3], > 3000 nM; in assay [4], > 3000 nM; in assay [5] it was > 3000 nM.

As for `C#Cc1cc(N2C(=O)N(C)CC23CCCC3)nc2nc(Nc3ccc(S(=O)(=O)N(C)CCN(C)C)cc3)ncc12` [Example 110, N-[2-(Dimethylamino)ethyl]-4-[(5-ethynyl-7-{3-methyl-2-oxo-1,3-diazaspiro[4.4]nonan 1-yl}pyrido[2,3-d]pyrimidin-2-yl)amino]-N-methylbenzenesulfonamide], the IC50 in assay [1] was 100 to 1000 nM; in assay [2], > 10000 nM; in assay [3] it was > 3000 nM; in assay [4], > 3000 nM; in assay [5], > 3000 nM.

On to `C#Cc1cc(N2C(=O)N(C)CC23CCCC3)nc2nc(Nc3ccc(OCCN(C)C)cc3)ncc12` [Example 107], for which the IC50 was 100 to 1000 nM in assay [1]; 1000 to 10000 nM in assay [2]; 1000 to 3000 nM in assay [3]; 1000 to 3000 nM in assay [4]; > 3000 nM in assay [5].

On to `C#Cc1cc(NC(=O)NCc2ccno2)nc2nc(Nc3ccc(N4CCN(C)CC4)cc3)ncc12` [Example 47, 1-(5-ethynyl-2-{[4-(4-methylpiperazin-1-yl)phenyl]amino}pyrido[2,3-d]pyrimidin-7-yl)-3-(1,2-oxazol-5-ylmethyl)urea], for which the IC50 in assay [1] was 20 to 100 nM; in assay [2], < 1000 nM; in assay [3], 500 to 1000 nM; in assay [4], 1000 to 3000 nM; in assay [5], > 3000 nM.

Take `C#Cc1cc(OC2CC2)nc2nc(Nc3ccc(N4CCN(C)CC4)cc3)ncc12` [Example 16, 7-cyclopropoxy-5-ethynyl-N-[4-(4-methylpiperazin-1-yl)phenyl]pyrido[2,3-d]pyrimidin-2-amine]: the IC50 in assay [1] is 100 to 1000 nM; in assay [2] it was > 10000 nM; in assay [3], 1000 to 3000 nM; in assay [4], > 3000 nM; in assay [5] it was > 3000 nM.

In the case of `C#Cc1cc(OC)nc2nc(Nc3ccc(N4CCN(C)CC4)c(Nc4ccccc4)c3)ncc12` [Example 6, N^1-{5-ethynyl-7-methoxypyrido[2,3-d]pyrimidin-2-yl}-4-(4-methylpiperazin-1-yl)-N^3-phenylbenzene-1,3-diamine], the IC50 was 20 to 100 nM in assay [1]; 1000 to 10000 nM in assay [2]; 1000 to 3000 nM in assay [3]; > 3000 nM in assay [4]; > 3000 nM in assay [5].

`C#Cc1cc(NC(=O)NCC2CCCC2)nc2nc(Nc3ccc(N4CCN(C)CC4)cc3)ncc12` [Example 40, 3-(cyclopentylmethyl)-1-(5-ethynyl-2-{[4-(4-methylpiperazin-1-yl)phenyl]amino}pyrido[2,3-d]pyrimidin-7-yl)urea]: the IC50 in assay [1] is < 20 nM; in assay [2], < 1000 nM; in assay [3] it was < 500 nM; in assay [4], < 500 nM; in assay [5] it was > 3000 nM.

`C#Cc1cc(NC(=O)NCc2cnco2)nc2nc(Nc3ccc(N4CCN(C)CC4)cc3)ncc12` [Example 45, 1-(5-ethynyl-2-{[4-(4-methylpiperazin-1-yl)phenyl]amino}pyrido[2,3-d]pyrimidin-7-yl)-3-(1,3-oxazol-5-ylmethyl)urea]: the IC50 was 20 to 100 nM in assay [1]; < 1000 nM in assay [2]; 500 to 1000 nM in assay [3]; 1000 to 3000 nM in assay [4]; > 3000 nM in assay [5].

For the compound `C#Cc1cc(NC(=O)Nc2ncc[nH]2)nc2nc(Nc3ccc(N4CCN(C)CC4)cc3)ncc12` [Example 59, 1-(5-ethynyl-2-{[4-(4-methylpiperazin-1-yl)phenyl]amino}pyrido[2,3-d]pyrimidin-7-yl)-3-(1H-imidazol-2-yl)urea], the IC50 is < 20 nM in assay [1]; < 1000 nM in assay [2]; 1000 to 3000 nM in assay [3]; 1000 to 3000 nM in assay [4]; > 3000 nM in assay [5].

On to `C#Cc1cc(OC)nc2nc(Nc3ccc(N4CCN(C)CC4)c(N(C)C)c3)ncc12` [Example 5, N^3-{5-ethynyl-7-methoxypyrido[2,3-d]pyrimidin-2-yl}-N^1,N^1-dimethyl-6-(4-methylpiperazin-1-yl)benzene-1,3-diamine], for which the IC50 in assay [1] was 100 to 1000 nM; in assay [2], > 10000 nM; in assay [3], > 3000 nM; in assay [4], > 3000 nM; in assay [5], > 3000 nM.

Turning to `C#Cc1cc(N2C(=O)N(C)CC23CCCC3)nc2nc(Nc3ccc(S(C)(=O)=O)cc3)ncc12` [Example 108, 1-{5-Ethynyl-2-[(4-methanesulfonylphenyl)amino]pyrido [2,3-d]pyrimidin-7-yl}-3-methyl-1,3-diazaspiro [4.4]nonan-2-one], the IC50 in assay [1] is 20 to 100 nM; in assay [2], > 10000 nM; in assay [3], > 3000 nM; in assay [4], > 3000 nM; in assay [5] it was 1000 to 3000 nM.

On to `C#Cc1cc(N2C(=O)NC[C@H]2COC)nc2nc(Nc3ccc(N4CCN(C)CC4)cc3)ncc12` [Example 101, (5S)-1-(5-Ethynyl-2-{[4-(4-methylpiperazin-1-yl)phenyl]amino}pyrido[2,3-d]pyrimidin-7-yl)-5-(methoxymethyl)imidazolidin-2-one], for which the IC50 in assay [1] was 20 to 100 nM; in assay [2], 1000 to 10000 nM; in assay [3] it was 500 to 1000 nM; in assay [4] it was > 3000 nM; in assay [5], > 3000 nM.

`C#Cc1cc(-n2cccc2)nc2nc(Nc3ccc(N4CCN(C)CC4)cc3)ncc12` [Example 36, 5-ethynyl-N-[4-(4-methylpiperazin-1-yl)phenyl]-7-(pyrrol-1-yl)pyrido[2,3-d]pyrimidin-2-amine]: the IC50 in assay [1] is < 20 nM; in assay [2], 1000 to 10000 nM; in assay [3], 1000 to 3000 nM; in assay [4], > 3000 nM; in assay [5], > 3000 nM.

On to `C#Cc1cc(NC(=O)NC2CN(S(C)(=O)=O)C2)nc2nc(Nc3ccc(N4CCN(C)CC4)cc3)ncc12` [Example 57, 1-(5-ethynyl-2-{[4-(4-methylpiperazin-1-yl)phenyl]amino}pyrido[2,3-d]pyrimidin-7-yl)-3-(1-methanesulfonylazetidin-3-yl)urea], for which the IC50 in assay [1] was < 20 nM; in assay [2] it was < 1000 nM; in assay [3] it was > 3000 nM; in assay [4] it was > 3000 nM; in assay [5] it was > 3000 nM.

As for `C#Cc1cc(NC(=O)NCC2CCOC2)nc2nc(Nc3ccc(N4CCN(C)CC4)cc3)ncc12` (stereo not drawn) [Example 51, 1-(5-ethynyl-2-{[4-(4-methylpiperazin-1-yl)phenyl]amino}pyrido[2,3-d]pyrimidin-7-yl)-3-(oxolan-3-ylmethyl)urea], the IC50 was < 20 nM in assay [1]; < 1000 nM in assay [2]; < 500 nM in assay [3]; < 500 nM in assay [4]; > 3000 nM in assay [5].

With `C#Cc1cc(N2C(=O)N(C)CC2C(C)C)nc2nc(Nc3ccc(N4CCN(C)CC4)cc3)ncc12` (stereo not drawn) [Example 102, 3-(5-Ethynyl-2-{[4-(4-methylpiperazin-1-yl)phenyl]amino}pyrido[2,3-d]pyrimidin-7-yl)-4-isopropyl-1-methylmidazolidin-2-one], the 50% inhibitory concentration (IC50) was < 20 nM in assay [1]; 1000 to 10000 nM in assay [2]; > 3000 nM in assay [3]; > 3000 nM in assay [4]; > 3000 nM in assay [5].

Turning to `C#Cc1cc(N2C(=O)OCC23CCCC3)nc2nc(Nc3ccc(N4CCN(C)CC4)cc3)ncc12` [Example 114, 1-(5-Ethynyl-2-{[4-(4-methylpiperazin-1-yl)phenyl]amino}pyrido[2,3-d]pyrimidin-7-yl)-3-oxa-1-azaspiro[4.4]nonan-2-one], the IC50 in assay [1] is < 20 nM; in assay [2] it was < 1000 nM; in assay [3], < 500 nM; in assay [4], 500 to 1000 nM; in assay [5] it was 1000 to 3000 nM.

In the case of `C#Cc1cc(N2C(=O)N(C)CC23CCCC3)nc2nc(Nc3ccc(N(C)C(=O)CN(C)C)cc3)ncc12` [Example 106, 2-(Dimethylamino)-N-{4-[(5-ethynyl-7-{3-methyl-2-oxo-1,3-diazaspiro[4.4]nonan-1-yl}pyrido[2,3-d]pyrimidin-2-yl)amino}phenyl]-N-methylacetamide], the IC50 in assay [1] was 100 to 1000 nM; in assay [2], 1000 to 10000 nM; in assay [3] it was > 3000 nM; in assay [4] it was 1000 to 3000 nM; in assay [5], 1000 to 3000 nM.
